According to patent US20250313635A1, “ANTI-INTEGRIN ANTIBODIES AND USES THEREOF” (Merck Sharp & Dohme LLC, priority 2022, published 2025):
Read-outs that look alike come from different tables or passages of the source.

Legend:
mouse αvβ5 = biological target: T1, mouse αvβ5 (Mus musculus, UniProt O70309+P43406); test: Cell adhesion assay, CHOK1-mαvβ5 cells on vitronectin; assay type: cell-based; settings: FIG. 11
T1 construct: expressed in transfected cells
Experimental: (§1) Cell adhesion assay. For plate preparation, Epic 384-well assay plates (Corning #5040) were washed with OptiMEM™ (Gibco #31985-070) and coated with murine fibronectin (Abcam #ab92784) at a concentration of 0.1 μg/well for CHO-α5KO-mαvβ1 cells; murine vitronectin (Abcam #ab92727) at 0.075 μg/well for CHO-mαvβ3 cells; or murine vitronectin at 0.125 μg/well for CHO-mαvβ5 (all at a volume of 25 μL/well in OptiMEM™), for one hour. Coating solution was then removed by flicking and plates were washed with OptiMEM™ and blocked with 25 μL/well of assay buffer (1% Ovalbumin (Sigma #A5503-10G) in OptiMEM™ containing 1×Pen-Strep (Gibco #15140-148)). A 5-minute baseline reading was taken on a Corning Epica Plate Reader (Model: Epic BT-157900) before removing the assay buffer and adding cells pre-incubated with inhibitors. The Epic™ plate reader detects cellular mass redistribution (adhesion) on the plate surface as a picometer wavelength shift over time. For inhibitor titration preparation: fivefold serial dilutions of small molecule inhibitor MK-0429 or antibody inhibitor Ab-31 were prepared in assay buffer at 4× the final concentration in a 384-well polypropylene plate in a volume of 15 μL per well, starting at a concentration of 800 nM. […]

mouse αvβ1 = biological target: T2, mouse αvβ1 (Mus musculus, UniProt P09055+P43406); test: Cell adhesion assay, CHOK1-α5KO-mαvβ1 cells on fibronectin; assay type: cell-based; settings: FIG. 11
T2 construct: expressed in transfected cells
Experimental: as §1

hαvβ1 = biological target: T3, hαvβ1 (Homo sapiens, UniProt P05556+P06756); test: Human AlphaLISA integrin-ligand blocking assay (fibronectin); assay type: biochemical
T3 construct: The full extracellular domains for all α and β integrin subunits; (GGGS)3 linker (C); acidic coiled-coil with cysteine (C); GG-Avitag (C); hexa-histidine tag (C); basic coiled-coil with cysteine (C); made in house; host or cells: Expi293 cells
T3 sequence (P06756 31-992 limits assumed): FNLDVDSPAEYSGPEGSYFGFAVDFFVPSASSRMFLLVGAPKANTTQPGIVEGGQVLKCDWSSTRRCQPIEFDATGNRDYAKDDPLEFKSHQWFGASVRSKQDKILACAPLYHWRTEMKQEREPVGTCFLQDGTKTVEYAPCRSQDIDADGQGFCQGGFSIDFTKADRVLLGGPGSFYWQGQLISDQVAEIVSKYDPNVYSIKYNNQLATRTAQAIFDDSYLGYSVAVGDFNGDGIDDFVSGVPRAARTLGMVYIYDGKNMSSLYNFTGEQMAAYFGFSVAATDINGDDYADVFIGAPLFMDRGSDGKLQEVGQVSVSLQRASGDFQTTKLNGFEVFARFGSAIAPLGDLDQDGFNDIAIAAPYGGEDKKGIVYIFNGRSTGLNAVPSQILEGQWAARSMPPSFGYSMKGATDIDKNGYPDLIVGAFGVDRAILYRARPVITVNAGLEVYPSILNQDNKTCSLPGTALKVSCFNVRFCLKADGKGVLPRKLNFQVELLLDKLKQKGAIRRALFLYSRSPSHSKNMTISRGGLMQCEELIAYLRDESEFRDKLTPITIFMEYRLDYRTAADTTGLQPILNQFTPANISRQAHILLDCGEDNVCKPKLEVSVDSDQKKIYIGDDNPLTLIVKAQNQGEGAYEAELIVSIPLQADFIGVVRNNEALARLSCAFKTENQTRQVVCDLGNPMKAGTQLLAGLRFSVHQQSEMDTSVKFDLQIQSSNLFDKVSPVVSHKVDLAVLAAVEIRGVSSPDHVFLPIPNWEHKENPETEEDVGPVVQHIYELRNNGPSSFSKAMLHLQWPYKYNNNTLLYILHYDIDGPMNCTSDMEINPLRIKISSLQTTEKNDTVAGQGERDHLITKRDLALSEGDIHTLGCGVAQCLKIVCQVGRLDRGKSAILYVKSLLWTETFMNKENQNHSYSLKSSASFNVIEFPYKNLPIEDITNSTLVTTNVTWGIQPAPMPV
T3 sequence (P05556 21-728 limits assumed): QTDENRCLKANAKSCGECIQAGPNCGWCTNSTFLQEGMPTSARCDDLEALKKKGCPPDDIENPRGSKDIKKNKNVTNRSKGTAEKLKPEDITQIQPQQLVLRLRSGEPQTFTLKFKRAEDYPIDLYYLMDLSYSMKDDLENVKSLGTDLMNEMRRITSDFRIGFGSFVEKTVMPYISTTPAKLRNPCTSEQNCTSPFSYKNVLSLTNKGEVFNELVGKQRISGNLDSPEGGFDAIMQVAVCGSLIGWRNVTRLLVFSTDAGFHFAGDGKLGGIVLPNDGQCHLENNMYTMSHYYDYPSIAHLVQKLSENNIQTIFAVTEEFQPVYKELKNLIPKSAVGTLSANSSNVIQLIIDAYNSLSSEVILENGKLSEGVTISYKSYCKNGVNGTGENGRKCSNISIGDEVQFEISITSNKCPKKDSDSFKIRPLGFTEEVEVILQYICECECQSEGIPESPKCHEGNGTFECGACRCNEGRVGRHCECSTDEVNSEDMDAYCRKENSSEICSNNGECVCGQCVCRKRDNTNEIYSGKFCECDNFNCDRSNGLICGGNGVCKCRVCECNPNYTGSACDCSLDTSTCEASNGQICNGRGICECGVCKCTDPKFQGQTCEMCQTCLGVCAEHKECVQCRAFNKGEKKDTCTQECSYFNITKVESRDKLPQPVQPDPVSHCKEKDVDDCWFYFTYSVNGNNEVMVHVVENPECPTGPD
Experimental: (§2) Integrin AlphaLISA assay. In the AlphaLISA integrin assays, we used a HEPES based buffer (25 mM HEPES pH 7.4, 137 mM NaCl, 1 mM MgCl2, 1 mM MnCl2, 2 mM CaCl2, 2.7 mM KCl, and 0.05% Tween 20). Optimal assay conditions were determined with a titration of the reagents for signal noise ratio (S/N), linear range, etc. For the respective integrins, we used the final concentrations described in Table 9.
(§3) Briefly, the testing antibody (8 μL) was added as a 4×(of Final testing concentration) solution in the HEPES buffer described previously into a 384w AlphaPlate™ (Perkin Elmer #6005350). Then the integrin and ligand were added sequentially as 8×(4 μL each). Plates were sealed and incubated at room temperature for two hours. Then 4×acceptor bead solution ([…]) was added, and the plates were resealed and incubated at room temperature (RT) for one hour. Finally, 4×([…]) donor beads solution was added in a darkened room and incubated for 45 minutes at room temperature. Plates were read on the Envision (Perkin Elmer) in AlphaScreen™ mode within three hours of donor bead addition.

hα5β1 = biological target: T4, hα5β1 (Homo sapiens, UniProt P05556+P08648); test: as above; assay type: biochemical
T4 construct: The full extracellular domains for all α and β integrin subunits; (GGGS)3 linker (C); acidic coiled-coil with cysteine (C); GG-Avitag (C); hexa-histidine tag (C); basic coiled-coil with cysteine (C); made in house; host or cells: Expi293 cells
T4 sequence (P08648 42-995 limits assumed): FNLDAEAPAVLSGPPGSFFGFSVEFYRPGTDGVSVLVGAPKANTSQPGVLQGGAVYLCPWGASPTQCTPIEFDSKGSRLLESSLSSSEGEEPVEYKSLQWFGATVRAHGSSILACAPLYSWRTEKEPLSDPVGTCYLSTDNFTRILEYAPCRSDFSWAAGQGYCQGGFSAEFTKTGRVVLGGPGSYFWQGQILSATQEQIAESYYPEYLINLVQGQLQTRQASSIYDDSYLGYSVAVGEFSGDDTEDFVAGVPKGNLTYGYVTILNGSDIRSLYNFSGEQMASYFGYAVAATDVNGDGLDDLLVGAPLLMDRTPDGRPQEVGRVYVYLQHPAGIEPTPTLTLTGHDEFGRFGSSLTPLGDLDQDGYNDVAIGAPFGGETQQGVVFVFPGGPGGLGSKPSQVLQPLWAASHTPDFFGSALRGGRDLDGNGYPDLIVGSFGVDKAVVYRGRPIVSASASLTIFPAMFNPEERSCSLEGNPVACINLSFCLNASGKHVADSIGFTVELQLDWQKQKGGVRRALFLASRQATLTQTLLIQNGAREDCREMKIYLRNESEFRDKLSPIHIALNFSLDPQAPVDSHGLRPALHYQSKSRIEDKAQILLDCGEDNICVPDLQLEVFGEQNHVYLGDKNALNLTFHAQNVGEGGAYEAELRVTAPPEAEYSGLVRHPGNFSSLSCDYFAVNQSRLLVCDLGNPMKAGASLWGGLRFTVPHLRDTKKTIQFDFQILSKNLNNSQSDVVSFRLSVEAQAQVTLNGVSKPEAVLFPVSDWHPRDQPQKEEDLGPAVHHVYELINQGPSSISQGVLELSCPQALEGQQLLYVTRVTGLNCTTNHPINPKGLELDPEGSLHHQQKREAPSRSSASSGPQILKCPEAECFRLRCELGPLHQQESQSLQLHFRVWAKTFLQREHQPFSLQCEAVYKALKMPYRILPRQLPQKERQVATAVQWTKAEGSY
T4 sequence (P05556 21-728 limits assumed): as the sequence (P05556 21-728 limits assumed) above
Experimental: as §2, §3

mouse αvβ3 = biological target: T5, mouse αvβ3 (Mus musculus, UniProt O54890+P43406); test: Cell adhesion assay, CHOK1-mαvβ3 cells on vitronectin; assay type: cell-based; settings: FIG. 11
T5 construct: expressed in transfected cells
Experimental: as §1

[1] = osteoporosis patients, 52 weeks; cited from earlier work
[2] = tested on: Normal human lung fibroblasts; test: αSMA imaging, TGFβ-induced αSMA expression; assay type: cell-based; settings: TGFβ 5 ng/mL, pre-treated 30 minutes, MK-0429 (10 µM) or SB-525334 (10 μM), 48 hours
Experimental: αSMA imaging. Primary cells (passage 3-5) were grown on Cell carrier Ultra, collagen Type 1 coated 96-well plates (Perkin Elmer, #6055700) at a density of 25,000 cells/well. Once the cells adhere, they were starved in serum free media for 24 hours followed by addition of treatments, i.e., 5 ng/mL TGFβ (Biolegend #580702)±inhibitors. Cells were pre-treated with inhibitors for 30 minutes prior to the addition of TGFβ stimulation. 48 hours post treatment, the cells were fixed in 4% methanol free paraformaldehyde (ThermoFisher Scientific #28908) for 20 minutes at room temperature and incubated with anti-alpha smooth muscle Actin antibody (Abcam #ab7817) at 1:4000 overnight at 4° C. Following primary antibody incubation, cells were incubated with Goat anti-mouse secondary antibody (ThermoFisher Scientific #A32723) at 1:500 and Hoechst (ThermoFisher Scientific #62249) at 1:1000 for one hour at RT. The fixed and stained cells were images for immunofluorescence on Perkin Elmer's Opera Phenix high content Imager.

T1 sequence (P43406 31-1044): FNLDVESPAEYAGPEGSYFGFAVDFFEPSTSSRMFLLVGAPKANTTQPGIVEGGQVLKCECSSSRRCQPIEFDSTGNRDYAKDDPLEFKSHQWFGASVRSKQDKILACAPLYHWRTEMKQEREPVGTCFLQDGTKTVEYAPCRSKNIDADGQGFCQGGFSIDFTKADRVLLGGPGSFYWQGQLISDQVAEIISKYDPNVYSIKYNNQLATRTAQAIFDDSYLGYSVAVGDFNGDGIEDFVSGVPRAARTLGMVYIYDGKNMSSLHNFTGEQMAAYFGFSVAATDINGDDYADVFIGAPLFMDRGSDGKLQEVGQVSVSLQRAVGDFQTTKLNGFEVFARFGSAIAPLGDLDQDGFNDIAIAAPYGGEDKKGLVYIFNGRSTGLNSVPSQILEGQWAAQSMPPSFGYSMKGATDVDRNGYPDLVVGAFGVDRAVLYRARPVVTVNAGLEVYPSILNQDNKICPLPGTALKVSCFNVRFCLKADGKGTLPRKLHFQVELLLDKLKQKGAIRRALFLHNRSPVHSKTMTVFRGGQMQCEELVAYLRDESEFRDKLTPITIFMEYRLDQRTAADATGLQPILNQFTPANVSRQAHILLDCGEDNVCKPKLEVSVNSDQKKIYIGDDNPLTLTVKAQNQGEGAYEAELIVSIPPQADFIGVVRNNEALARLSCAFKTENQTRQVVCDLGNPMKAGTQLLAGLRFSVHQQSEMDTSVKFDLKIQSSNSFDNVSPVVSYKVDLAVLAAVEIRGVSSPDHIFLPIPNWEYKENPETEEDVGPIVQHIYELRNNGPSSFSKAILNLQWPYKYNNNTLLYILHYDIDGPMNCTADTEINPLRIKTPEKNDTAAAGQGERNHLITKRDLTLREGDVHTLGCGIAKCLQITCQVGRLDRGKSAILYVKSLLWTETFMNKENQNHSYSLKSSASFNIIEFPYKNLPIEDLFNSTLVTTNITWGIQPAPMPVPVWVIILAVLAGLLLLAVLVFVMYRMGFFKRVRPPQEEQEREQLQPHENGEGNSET
T1 sequence (O70309 24-798): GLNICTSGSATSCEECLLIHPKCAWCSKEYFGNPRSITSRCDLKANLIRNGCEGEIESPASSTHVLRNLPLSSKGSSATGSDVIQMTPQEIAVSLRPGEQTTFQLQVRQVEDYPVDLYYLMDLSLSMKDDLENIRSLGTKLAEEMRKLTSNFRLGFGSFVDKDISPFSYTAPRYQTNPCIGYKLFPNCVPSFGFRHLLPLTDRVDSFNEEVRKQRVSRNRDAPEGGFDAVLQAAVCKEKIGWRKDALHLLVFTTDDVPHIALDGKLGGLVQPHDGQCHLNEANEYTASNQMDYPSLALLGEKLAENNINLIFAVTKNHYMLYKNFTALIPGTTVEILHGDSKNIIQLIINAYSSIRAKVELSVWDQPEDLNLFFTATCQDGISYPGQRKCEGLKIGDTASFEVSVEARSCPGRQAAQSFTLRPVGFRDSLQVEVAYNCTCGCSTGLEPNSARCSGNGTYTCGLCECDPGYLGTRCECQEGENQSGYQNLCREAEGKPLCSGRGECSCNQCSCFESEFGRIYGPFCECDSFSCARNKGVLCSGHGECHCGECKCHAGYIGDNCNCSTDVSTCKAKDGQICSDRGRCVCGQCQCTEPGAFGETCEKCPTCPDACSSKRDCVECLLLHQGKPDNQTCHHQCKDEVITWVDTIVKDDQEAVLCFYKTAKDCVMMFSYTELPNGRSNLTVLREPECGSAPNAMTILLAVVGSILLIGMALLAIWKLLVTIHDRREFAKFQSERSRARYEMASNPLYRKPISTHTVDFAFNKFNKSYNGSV

## COc1ccc([C@H](CC(=O)O)N2CCN(CCCc3ccc4c(n3)NCCC4)C2=O)cn1 [MK-0429, (3S)-3-(6-methoxypyridin-3-yl)-3-[2-oxo-3-[3-(5,6,7,8-tetrahydro-1,8-naphthyridin-2-yl)propyl]imidazolidin-1-yl]propanoic acid]
Mouse αvβ5
  cell adhesion of mouse αvβ5 on a vitronectin matrix: decreased
Mouse αvβ1
  adhesion of mouse αvβ1-expressing CHOK1-α5KO cells: potently reduced
hαvβ1; FIG. 3D, curve-fitted, read-out: IC50 against human αvβ1, AlphaLISA
  IC50: 0.46 nM
hαvβ1; Table 11, read-out: IC50 Human integrin AlphaLISA assays hαvβ1
  IC50: 1 nM
hα5β1; FIG. 3D, curve-fitted, read-out: IC50 against human αvβ1 (as printed, sixth integrin listed), AlphaLISA
  IC50: 17.3 nM
hα5β1; Table 11, read-out: IC50 Human integrin AlphaLISA assays hα5β1
  IC50: 26.5 nM
Mouse αvβ3
  cell adhesion of mouse αvβ3 on a vitronectin matrix: decreased
[1]
  safety profile: relatively well-tolerated safety profile
[2]
  αSMA intensity and the percentage of stimulated cells following TGFβ treatment: significantly reduced
